Measured values as given in ChEMBL document CHEMBL1671751, “FRET-based sensors for the human M1-, M3-, and M5-acetylcholine receptors” (Bioorg Med Chem, 2011).

Experiments:
[1] = target: T1, Muscarinic acetylcholine receptor M5 (Homo sapiens) (UniProt P08912); assay: Agonist activity at M5-ACh receptor-FLASH/CFP expressed in HEK293 cells assessed as half-maximal activation time at 100 uM to 1 mM by FRET method; type: functional, cell-based
T1 sequence (whole entry): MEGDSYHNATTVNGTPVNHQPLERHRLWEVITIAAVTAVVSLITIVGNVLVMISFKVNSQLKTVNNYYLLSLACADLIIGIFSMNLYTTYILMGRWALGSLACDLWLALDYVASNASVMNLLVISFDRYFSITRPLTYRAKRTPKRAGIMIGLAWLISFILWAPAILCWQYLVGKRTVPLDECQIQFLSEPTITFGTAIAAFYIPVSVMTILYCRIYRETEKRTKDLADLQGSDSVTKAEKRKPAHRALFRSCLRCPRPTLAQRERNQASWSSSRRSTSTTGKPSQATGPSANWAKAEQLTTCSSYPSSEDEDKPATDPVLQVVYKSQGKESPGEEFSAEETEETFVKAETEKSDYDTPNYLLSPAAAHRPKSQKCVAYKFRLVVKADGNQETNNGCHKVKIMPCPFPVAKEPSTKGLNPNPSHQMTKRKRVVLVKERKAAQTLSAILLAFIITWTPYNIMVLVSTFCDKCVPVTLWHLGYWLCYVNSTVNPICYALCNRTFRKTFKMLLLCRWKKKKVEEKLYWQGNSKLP

[2] = target: T1, Muscarinic acetylcholine receptor M5 (Homo sapiens); assay: Agonist activity at M5-ACh receptor-FLASH/CFP expressed in HEK293 cells assessed as rate constant at 100 uM to 1 mM by FRET method; type: functional, cell-based
[3] = target: T2, Muscarinic acetylcholine receptor M5 (Homo sapiens, UniProt P08912); assay: Activation of M5-ACh receptor-FLASH/CFP expressed in HEK293 cells assessed as FRET signal; type: cell-based
T2 sequence (P08912 whole entry): T1 sequence (whole entry)

[4] = target: Muscarinic acetylcholine receptor M3 (Homo sapiens, UniProt P20309); assay: Activation of M3-ACh receptor-FLASH/CFP expressed in HEK293 cells assessed as FRET signal; type: cell-based
[5] = target: T3, Muscarinic acetylcholine receptor M1 (Homo sapiens, UniProt P11229); assay: Activation of M1-ACh receptor-FLASH/CFP expressed in HEK293 cells assessed as FRET signal; type: cell-based
T3 sequence (P11229 whole entry): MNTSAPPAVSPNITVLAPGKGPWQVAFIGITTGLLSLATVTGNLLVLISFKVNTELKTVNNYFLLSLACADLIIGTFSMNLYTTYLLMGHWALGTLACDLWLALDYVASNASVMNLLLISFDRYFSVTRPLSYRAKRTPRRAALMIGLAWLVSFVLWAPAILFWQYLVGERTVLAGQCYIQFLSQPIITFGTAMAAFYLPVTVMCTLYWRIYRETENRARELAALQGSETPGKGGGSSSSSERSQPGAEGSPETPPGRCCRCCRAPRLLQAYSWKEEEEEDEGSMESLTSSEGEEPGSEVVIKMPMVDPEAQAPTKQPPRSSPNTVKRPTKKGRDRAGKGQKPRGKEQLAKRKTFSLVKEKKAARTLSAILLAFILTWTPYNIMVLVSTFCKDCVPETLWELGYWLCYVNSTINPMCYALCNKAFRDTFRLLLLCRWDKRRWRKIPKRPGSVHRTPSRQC

Muscarinic acetylcholine receptor M3, sequence (P20309 whole entry): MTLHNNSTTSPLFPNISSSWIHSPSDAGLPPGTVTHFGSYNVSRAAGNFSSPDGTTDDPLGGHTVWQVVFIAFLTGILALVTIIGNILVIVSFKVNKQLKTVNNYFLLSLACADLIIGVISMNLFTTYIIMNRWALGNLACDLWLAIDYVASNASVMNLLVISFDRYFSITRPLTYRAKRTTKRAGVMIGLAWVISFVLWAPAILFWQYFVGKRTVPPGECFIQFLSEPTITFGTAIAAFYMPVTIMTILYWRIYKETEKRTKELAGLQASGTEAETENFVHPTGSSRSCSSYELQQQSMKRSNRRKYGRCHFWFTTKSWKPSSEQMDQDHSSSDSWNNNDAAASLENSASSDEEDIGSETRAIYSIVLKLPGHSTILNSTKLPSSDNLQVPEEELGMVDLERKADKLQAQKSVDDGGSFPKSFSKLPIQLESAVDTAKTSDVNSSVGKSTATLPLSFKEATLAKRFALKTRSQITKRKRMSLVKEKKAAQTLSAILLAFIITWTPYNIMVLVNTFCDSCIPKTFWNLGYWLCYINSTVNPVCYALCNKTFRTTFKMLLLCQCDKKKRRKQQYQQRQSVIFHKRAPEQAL

SMILES	TIME [1]	Activity [2]	EC50 [3]	EC50 [4]	EC50 [5]
CC(=O)OCC[N+](C)(C)C	1.81e-05 h	15.4 s⁻¹			
C[N+](C)(C)CCOC(N)=O	1.89e-05 h	14.7 s⁻¹			
C[C@@H]1O[C@H](C[N+](C)(C)C)C[C@H]1O [MUSCARINE CHLORIDE]	2e-05 h	13.9 s⁻¹	1300 nM	1000 nM	
C[N+](C)(C)CC#CCN1CCCC1=O [OXOTREMORINE METHIODIDE]	2.89e-05 h	9.6 s⁻¹	2300 nM	1800 nM	7.4 µM
